Assay results as given in US10736968B2, “Cellular signalling inhibitors, their formulations and methods thereof” (INVICTUS ONCOLOGY PVT. LTD., priority 2016, dated 2020).

Test system: macrophages
Test: Repolarization of IL4-skewed M2 macrophages to M1-like state after washout (FACS)
Format: cell-based
Details: IL4 24 hours, inhibitor 4 hours, washed, fresh media 12-72 hours
Procedure: Activity Studies of Compound of Formula I • Efficacy of BLN101 vs BLZ945 on the ability to inhibit CSF1R in vitro is studied. RAW264.7 cells are treated with BLZ945 (67 nM) or BLN101 (67 nM) for different time points, at the end of which the cells were exposed to CSF1 (10 ng/ml) for 20 min. The cells were then lysed and analyzed for phosphorylated CSF1R levels. […] Efficacy of BLN101 (in formulation AK750) vs BLZ945 on increase in iNOS expression in vitro is studied. It is observed that exposure to Tumor Conditioned Media over 24 h decreases INOS levels. Measurement of the expression of iNOS in RAW264.7 cells at different time points after treatment with B-16-tumour conditioned media followed by BLZ-945 or BLN101 (as AK750 formulation) treatment across different time points. […] Treatment of monocytes with IL4 is known to facilitate the differentiation of monocytes into macrophages. Further, activation of CSF1R skews it to a M2 phenotype. […] At different time points analysis of the cells for expression of markers CD11b+CD206+, CD11b+MHC-II+, CD11b+CD86+ and CD11b+CD80+ on the cells using flow cytometry. […] (FIG. 4). […] At different time-points, the cells are harvested and analyzed the population for M1 (MHCII+, CD86+, CD80+) or M2 (CD206+) markers using fluorescence activated cell sorting (FIG. 5d). […]

CNC(=O)c1cc(Oc2ccc3nc(N[C@@H]4CCCC[C@H]4O)sc3c2)ccn1 [BLZ-945]
M1 markers (MHCII+, CD86+, CD80+): did not increase the M1 markers | M2 phenotype (CD206+): at early time-points is observed, but this effect was lost at later time points
